Assay results published in patent publication US6809214B2, “Shortened synthesis of 3,3-diarylpropylamine derivatives” (Schwartz Pharma AG, priority 2000, dated 2004).
Converted amounts (≈) assume the structure as drawn. Counter-ions that a name gives are not always drawn.

Experiments:
[1] = Solubilities at ambient temperature; format: physicochemical

Row | Compound | melting point | further results
1 | O=C1C[C@H](c2ccccc2)c2cc(C(=O)O)ccc2O1 (as salt: salt) [Example 3, (R)-4-Phenyl-2-chromanone-6-carboxylic acid] | 197.5 °C | –
2 | O=C1CC(c2ccccc2)c2cc(C(=O)O)ccc2O1 (racemic) [Example 1, (R,S)-4-Phenyl-2-chromanone-6-carboxylic acid] | 246 °C | –
3 | O=C1C[C@H](c2ccccc2)c2cc(C(=O)O)ccc2O1 [Example 3, (R)-4-Phenyl-2-chromanone-6-carboxylic acid] | 224.9 °C | –
4 | CC(C)N(CC[C@H](c1ccccc1)c1cc(C(=O)O)ccc1O)C(C)C [Example 9, (R)-(−)-3-(Diisopropylamino-1-phenylpropyl)-4-hydroxybenzoic acid] | 102.3 °C | –
5 | CC(C)N(CC[C@H](c1ccccc1)c1cc(CO)ccc1O)C(C)C [Example 13, (R)-2-(3-diisopropylamino-1-phenylpropyl)-4-hydroxymethylphenol] | – | solubility ([1]; in water): ~10 mg/mL (≈ 29.3 mM); solubility ([1]; organic solvent or mixture, in 2-butanone): < 0.2 mg/mL; solubility ([1]; organic solvent or mixture, in dichloromethane): < 0.2 mg/mL; solubility ([1]; organic solvent or mixture, in ethyl acetate): < 0.2 mg/mL; solubility ([1]; organic solvent or mixture, in methanol): > 50 mg/mL

Continued, in another order:

Row | melting point | Compound | further results
6 | 143.7 °C | COC(=O)c1ccc(O)c([C@H](CCN(C(C)C)C(C)C)c2ccccc2)c1 [Example 8b, (R)-(−)-3-(3-Diisopropylamino-1-phenylpropyl)-4-hydroxybenzoic acid methyl ester] | –
7 | 85.9 °C | CC(C)OC(=O)c1ccc2c(c1)C(c1ccccc1)CC(=O)O2 (racemic) [Example 5c] | –
8 | 97 to 99 °C | COC(=O)c1ccc2c(c1)C(c1ccccc1)CC(=O)O2 (racemic) [Example 5a] | –
